Key:
[1] = target: T1, D(2) dopamine receptor (Bos taurus, UniProt P20288); test: In vitro ability to displace [3H]pramipexole from high affinity binding sites of bovine D2 receptors in striatal membranes.
[2] = target: D(1A) dopamine receptor (Bos taurus, UniProt Q95136); test: In vitro ability to displace [3H]SCH-23390 from bovine Dopamine receptor D1 in striatal membranes.
[3] = target: T1, D(2) dopamine receptor; test: In vitro ability to displace [3H]-spiperone from bovine cloned Dopamine receptor D2 stably expressed in CHO cells.; type: cell-based
[4] = target: D(3) dopamine receptor (Homo sapiens, UniProt P35462)
D(3) dopamine receptor, sequence (P35462 whole entry): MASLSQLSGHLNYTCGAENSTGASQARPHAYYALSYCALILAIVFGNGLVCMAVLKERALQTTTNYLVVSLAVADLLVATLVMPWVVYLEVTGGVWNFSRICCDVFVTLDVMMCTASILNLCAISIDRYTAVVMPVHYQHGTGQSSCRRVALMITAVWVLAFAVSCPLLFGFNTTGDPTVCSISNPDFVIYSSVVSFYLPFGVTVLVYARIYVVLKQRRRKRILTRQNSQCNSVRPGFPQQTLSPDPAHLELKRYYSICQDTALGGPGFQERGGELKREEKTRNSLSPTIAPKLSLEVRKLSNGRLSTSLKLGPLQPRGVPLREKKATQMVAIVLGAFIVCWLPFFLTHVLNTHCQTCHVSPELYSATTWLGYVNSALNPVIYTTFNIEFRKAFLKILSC
Description: In vitro ability to displace [3H]spiperone from human cloned Dopamine receptor D3 stably expressed in CHO cells.

D(1A) dopamine receptor, sequence (Q95136 whole entry): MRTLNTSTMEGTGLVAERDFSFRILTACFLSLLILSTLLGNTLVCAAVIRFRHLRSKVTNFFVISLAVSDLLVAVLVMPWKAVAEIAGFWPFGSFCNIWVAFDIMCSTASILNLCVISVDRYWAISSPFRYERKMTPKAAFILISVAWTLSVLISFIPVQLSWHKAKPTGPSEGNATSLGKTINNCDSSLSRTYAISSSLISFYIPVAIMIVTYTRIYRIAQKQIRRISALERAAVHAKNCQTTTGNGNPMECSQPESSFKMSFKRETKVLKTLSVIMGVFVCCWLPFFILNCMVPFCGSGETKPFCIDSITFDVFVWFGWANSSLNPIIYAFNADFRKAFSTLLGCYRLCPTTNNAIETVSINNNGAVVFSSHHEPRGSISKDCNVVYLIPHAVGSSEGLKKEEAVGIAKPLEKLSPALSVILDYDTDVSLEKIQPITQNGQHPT
T1 sequence (P20288 whole entry): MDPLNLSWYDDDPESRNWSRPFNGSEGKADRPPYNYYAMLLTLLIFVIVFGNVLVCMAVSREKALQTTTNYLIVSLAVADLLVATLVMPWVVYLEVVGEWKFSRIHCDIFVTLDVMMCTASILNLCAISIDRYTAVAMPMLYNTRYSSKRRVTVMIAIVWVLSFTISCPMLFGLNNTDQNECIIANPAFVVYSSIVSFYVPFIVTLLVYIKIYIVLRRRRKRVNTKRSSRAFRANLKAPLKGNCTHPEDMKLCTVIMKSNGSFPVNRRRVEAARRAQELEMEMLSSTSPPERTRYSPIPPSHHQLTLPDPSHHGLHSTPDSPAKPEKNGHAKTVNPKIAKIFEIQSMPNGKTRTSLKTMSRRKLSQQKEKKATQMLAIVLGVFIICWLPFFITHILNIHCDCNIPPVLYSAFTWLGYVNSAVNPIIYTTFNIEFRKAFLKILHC

Row | SMILES | Ki [1] | Ki [2] | Ki [3] | Ki [4]
1 | CCCN(CCC)[C@H]1CCn2ccc(CO)c2C1 | 8 µM | > 100 µM | 55 µM | 9.7 µM
2 | CCCN(CCC)[C@H]1CCn2cc(CO)cc2C1 | 13 µM | > 100 µM | > 100 µM | 8.6 µM
3 | CCCN(CCC)[C@@H]1CCn2c(C=O)ccc2C1 | 1.7 µM | 47 µM | 21 µM | 1.8 µM
4 | CCCN(CCC)[C@@H]1CCn2ccc(C)c2C1 | 1 µM | 71 µM | 12 µM | 2.1 µM
5 | CCCN(CCC)[C@@H]1CCn2cc(CO)cc2C1 | 1 µM | > 100 µM | 34 µM | 1.4 µM
6 | CCCN(CCC)[C@H]1CCn2ccc(C=O)c2C1 | 1.6 µM | > 100 µM | 5.9 µM | 3.6 µM
7 | CCCN(CCC)[C@@H]1CCn2c(CO)ccc2C1 | 4.7 µM | > 100 µM | 37 µM | 7.4 µM

Compounds with a lower Ki [1], results first:

Row | Ki [1] | Ki [2] | Ki [3] | Ki [4] | SMILES
8 | 0.021 µM | 26 µM |  |  | CCCN(CCC)[C@H]1CCn2c(C=O)ccc2C1
9 | 0.15 µM | > 100 µM | 4.1 µM | 0.56 µM | CCCN(CCC)[C@@H]1CCn2cccc2C1
10 | 0.8 µM | 83 µM | 17 µM | 1.3 µM | CCCN(CCC)[C@@H]1CCn2cc(C)cc2C1
11 | 0.43 µM | 12 µM | 1.3 µM | 0.59 µM | CCCN(CCC)[C@@H]1CCn2c(C)ccc2C1
12 | 0.087 µM | 13 µM | 5.5 µM | 0.42 µM | CCCN(CCC)[C@H]1CCn2c(CO)ccc2C1
13 | 0.2 µM | 100 µM | 6.1 µM | 0.33 µM | CCCN(CCC)[C@@H]1CCn2ccc(CO)c2C1
14 | 0.15 µM | 29 µM | 3.8 µM | 0.43 µM | CCCN(CCC)[C@H]1CCn2c(C)ccc2C1
15 | 0.38 µM | 68 µM | 4 µM | 0.75 µM | CCCN(CCC)[C@H]1CCn2ccc(C)c2C1
16 | 0.38 µM | 80 µM | 12 µM | 0.51 µM | CCCN(CCC)[C@@H]1CCn2ccc(C=O)c2C1
17 | 0.64 µM | 44 µM | 9.6 µM | 0.77 µM | CCCN(CCC)[C@H]1CCn2cc(C)cc2C1

Source: ChEMBL document CHEMBL1133833, “Dopaminergic 7-aminotetrahydroindolizines: ex-chiral pool synthesis and preferential D3 receptor binding” (Bioorg Med Chem Lett, 2001)
